For one assay, the target named is LXR α LBD protein (Homo sapiens (Human), UniProt Q13133). Kind of assay: LXR α radioligand binding assay (SPA, [3H]T0901317 competition).
The next assay deals with LXR β LBD protein (Homo sapiens (Human), UniProt P55055). Kind of assay: LXR β radioligand binding assay (SPA, [3H]T0901317 competition). The settings on record: competition with 15 nM [3H]T0901317, LXRβ LBD.
For assay [1], the target named is T1, LBD of LXRβ (Homo sapiens (Human), UniProt P55055). Kind of assay: cell-based.
The next assay deals with LBD of LXRα (Homo sapiens (Human), UniProt Q13133). Kind of assay: LXR luciferase transcriptional reporter gene assay, LXRα. It is filed as cell-based. As to conditions: HEK293 cells, Gal4-LXRα LBD, 16 h, read-out: LXRα CELL EC50. A general note: In a reporter assay the amount or activity of a reporter protein is the signal.
For assay [2], the target named is T1, LBD of LXRβ.
Where [3] appears, read: competition with 15 nM [3H]T0901317, LXRα LBD.

Each structure is given as a SMILES string. Read-outs that look alike come from different tables or passages of the source. A value given as a limit tells only on which side of the number the result lay.

T1 sequence (P55055 222-460): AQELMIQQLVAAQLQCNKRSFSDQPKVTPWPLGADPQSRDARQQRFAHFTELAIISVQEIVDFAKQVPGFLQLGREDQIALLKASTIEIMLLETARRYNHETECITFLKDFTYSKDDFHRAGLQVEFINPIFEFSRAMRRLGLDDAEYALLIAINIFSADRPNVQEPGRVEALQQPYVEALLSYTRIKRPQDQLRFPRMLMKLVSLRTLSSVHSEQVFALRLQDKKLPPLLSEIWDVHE
Chain of LXR β LBD protein (P55055 222-460): as above
Chain of LXR α LBD protein (Q13133 209-447): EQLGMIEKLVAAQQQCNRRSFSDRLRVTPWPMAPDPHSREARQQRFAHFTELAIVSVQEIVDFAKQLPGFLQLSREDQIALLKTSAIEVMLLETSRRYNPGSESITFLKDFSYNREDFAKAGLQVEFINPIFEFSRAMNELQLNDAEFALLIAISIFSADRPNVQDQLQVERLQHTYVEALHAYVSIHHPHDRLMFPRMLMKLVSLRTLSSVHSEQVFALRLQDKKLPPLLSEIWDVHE
Chain of LBD of LXRα (Q13133 209-447): as above

For the compound `CC(C)[C@@H]1c2nc3cc(CO)c(S(C)(=O)=O)cc3n2CCN1c1ncc(C(=O)O)c(C(F)(F)F)n1` (single isomer, unassigned) [Compound E14a], the Ki – broadly, the equilibrium dissociation constant of an inhibitor or competing ligand from its target – was greater than 3.33 µM on LXR α LBD protein (read-out: LXRα BINDING Ki) and greater than 2500 nM at LXR β LBD protein. Besides, the EC50 (as a rule, the concentration at which the effect is half-maximal) on LBD of LXRβ [1] was 7.54 µM; on LBD of LXRα, greater than 20 µM.
On to `CNC(=O)c1cnc(N2CCn3c(nc4cc(CO)c(S(C)(=O)=O)cc43)[C@@H]2C(C)C)nc1C(F)(F)F` (single isomer, unassigned) [Compound E16b], for which, at LXR α LBD protein (read-out: LXRα BINDING Ki), the Ki was greater than 3.33 µM. Further, on LBD of LXRα, the EC50 is greater than 20 µM.
As to `Cc1nc(N2CCn3c(nc4cc(CO)c(S(C)(=O)=O)cc43)[C@H]2C(C)C)ncc1CO` [Compound E19, (R)-(2-(8-(hydroxymethyl)-1-isopropyl-7-(methylsulfonyl)-3,4-dihydrobenzo[4,5]imidazo[1,2-a]pyrazin-2(1H)-yl)-4-methylpyrimidin-5-yl)methanol], the Ki was greater than 3.33 µM at LXR α LBD protein (setting [3]) and greater than 2500 nM at LXR β LBD protein. In addition, the EC50 at LBD of LXRβ [1] and at LBD of LXRα was greater than 20 µM throughout.
With `CCOC(=O)c1cnc(N2CCn3c(nc4ccc(S(C)(=O)=O)cc43)C2C(C)C)nc1C(F)(F)F` (racemic) [Compound E3, Ethyl 2-(1-isopropyl-7-(methylsulfonyl)-3,4-dihydrobenzo[4,5]imidazo[1,2-a]pyrazin-2(1H)-yl)-4-(trifluoromethyl)pyrimidine-5-carboxylate], the figures for the Ki on LXR α LBD protein (setting [3]) and on LXR β LBD protein were greater than 3.33 µM and 1160 nM, respectively. Moreover, the EC50 amounted to 4.62 µM at LBD of LXRβ [1] and 17.3 µM on LBD of LXRα.
Turning to `CC(C)C1c2cc3cc(CO)c(S(C)(=O)=O)cc3n2CCN1c1ncc(C(C)(C)O)c(C(F)(F)F)n1` (single isomer, unassigned) [Compound E27b, 2-(2-(8-(hydroxymethyl)-1-isopropyl-7-(methylsulfonyl)-3,4-dihydropyrazino[1,2-a]indol-2(1H)-yl)-4-(trifluoromethyl)pyrimidin-5-yl)propan-2-ol], at LBD of LXRβ [2], the EC50 is 1440 nM. The compound further gave a Ki at LXR β LBD protein of 712 nM.
For `CC(=O)c1cnc(N2CCn3c(cc4ccc(S(C)(=O)=O)cc43)[C@@H]2C(C)C)nc1C(F)(F)F` [Compound E22b, (S)-1-(2-(1-isopropyl-7-(methylsulfonyl)-3,4-dihydropyrazino[1,2-a]indol-2(1H)-yl)-4-(trifluoromethyl)pyrimidin-5-yl)ethanone] the same measures were 11500 nM and greater than 2500 nM.
For `CC(C)[C@@H]1c2cc3ccc(S(C)(=O)=O)cc3n2CCN1c1ncc(CO)c(C(F)(F)F)n1` [Compound E25a, (R)-(2-(1-isopropyl-7-(methylsulfonyl)-3,4-dihydropyrazino[1,2-a]indol-2(1H)-yl)-4-(trifluoromethyl)pyrimidin-5-yl)methanol] the same measures were 83 nM and 6 nM.
Consider `CC(C)[C@H]1c2nc3cc(CO)c(S(C)(=O)=O)cc3n2CCN1c1ncc(C(=O)O)c(C(F)(F)F)n1` (single isomer, unassigned) [Compound E14b], for which the Ki at LXR α LBD protein (read-out: LXRα BINDING Ki) was greater than 3.33 µM; at LXR β LBD protein it was greater than 2500 nM. The EC50 at LBD of LXRβ [1] and on LBD of LXRα was greater than 20 µM in each case.
As to `CC(C)C1c2nc3ccc(S(C)(=O)=O)cc3n2CCN1c1ncc(C(N)=O)c(C(F)(F)F)n1` (racemic) [Compound E5, 2-(1-isopropyl-7-(methylsulfonyl)-3,4-dihydrobenzo[4,5]imidazo[1,2-a]pyrazin-2(1H)-yl)-4-(trifluoromethyl)pyrimidine-5-carboxamide], the Ki on LXR α LBD protein (setting [3]) is greater than 3.33 µM; at LXR β LBD protein it was greater than 2500 nM. In addition, the values for the EC50 on LBD of LXRβ [1] and on LBD of LXRα were 2.69 µM and greater than 20 µM, respectively.
`CNC(=O)c1cnc(N2CCn3c(nc4cc(CO)c(S(C)(=O)=O)cc43)[C@H]2C(C)C)nc1C(F)(F)F` (single isomer, unassigned) [Compound E16a]: at LXR α LBD protein (read-out: LXRα BINDING Ki), the Ki is greater than 3.33 µM. Further, the EC50 on LBD of LXRα was greater than 20 µM.

Values taken from US9073931B2, “Liver X receptor modulators” (Vitae Pharmaceuticals, Inc., priority 2012, dated 2015).
